From patent US12435059B2, “AMP-activated protein kinase inhibitors and methods of making and using the same” (The Regents of the University of Colorado, priority 2019, dated 2025)
Like-named read-outs stand apart in the source and are kept apart here.

Columns and labels:
Assay in all cases: biochemical
Format in all cases: binding
[1] = target: 468 kinases (Homo sapiens, UniProt Q9NYL2); settings: ZAK; read-out: % Inhibition @ 100 nM
[2] = target: 468 kinases (Homo sapiens, UniProt P53671); settings: LIMK2; read-out: % Inhibition @ 100 nM
[3] = target: 468 kinases (Homo sapiens, UniProt Q8N4C8); settings: MINK; read-out: % Inhibition @ 100 nM
[4] = target: 468 kinases (Homo sapiens, UniProt P45984); settings: JNK2; read-out: % Inhibition @ 100 nM
[5] = target: 468 kinases (Homo sapiens, UniProt P51957); settings: NEK4; read-out: % Inhibition @ 100 nM
[6] = target: 468 kinases (Homo sapiens, UniProt Q96J92); settings: WNK4; read-out: % Inhibition @ 100 nM
[7] = target: 468 kinases (Homo sapiens, UniProt Q9UIK4); settings: DAPK2; read-out: % Inhibition @ 100 nM
[8] = target: 468 kinases (Homo sapiens, UniProt P42336, E545A); settings: PIK3CA(E545A); read-out: % Inhibition @ 100 nM
[9] = target: 468 kinases (Homo sapiens, UniProt P49841); settings: GSK3B; read-out: % Inhibition @ 100 nM
[10] = target: 468 kinases (Homo sapiens, UniProt P07948); settings: LYN; read-out: % Inhibition @ 100 nM
[11] = target: 468 kinases (Homo sapiens, UniProt Q15759); settings: p38-beta; read-out: % Inhibition @ 100 nM
[12] = target: 468 kinases (Homo sapiens, UniProt O95382); settings: ASK2; read-out: % Inhibition @ 100 nM
[13] = target: 468 kinases (Homo sapiens, UniProt Q9UHD2); settings: TBK1; read-out: % Inhibition @ 100 nM
[14] = target: 468 kinases (Homo sapiens, UniProt P10721, A829P); settings: KIT(A829P); read-out: % Inhibition @ 100 nM
[15] = target: 468 kinases (Homo sapiens, UniProt Q9NRP7); settings: STK36; read-out: % Inhibition @ 100 nM
[16] = target: 468 kinases (Homo sapiens, UniProt Q9UM73, L1196M); settings: ALK(L1196M); read-out: % Inhibition @ 100 nM
[17] = target: 468 kinases (Homo sapiens, UniProt Q96Q40); settings: PFTAIRE2; read-out: % Inhibition @ 100 nM
[18] = target: 468 kinases (Homo sapiens, UniProt Q02779); settings: MLK2; read-out: % Inhibition @ 100 nM
[19] = target: 468 kinases (Homo sapiens, UniProt Q9H2G2); settings: SLK; read-out: % Inhibition @ 100 nM
[20] = target: 468 kinases (Homo sapiens, UniProt P32298); settings: GRK4; read-out: % Inhibition @ 100 nM
[21] = target: 468 kinases (Homo sapiens, UniProt Q86V86); settings: PIM3; read-out: % Inhibition @ 100 nM
[22] = target: 468 kinases (Homo sapiens, UniProt P00533, L861Q); settings: EGFR(L861Q); read-out: % Inhibition @ 100 nM
[23] = target: 468 kinases (Homo sapiens, UniProt Q8N5S9); settings: CAMKK1; read-out: % Inhibition @ 100 nM
[24] = target: 468 kinases (Homo sapiens, UniProt Q09013); settings: DMPK; read-out: % Inhibition @ 100 nM
[25] = target: 468 kinases (Homo sapiens, UniProt P53779); settings: JNK3; read-out: % Inhibition @ 100 nM
[26] = target: 468 kinases (Homo sapiens, UniProt P00519, T315I); settings: read-out: % Inhibition @ 100 nM
[27] = target: 468 kinases (Homo sapiens, UniProt Q9Y243); settings: AKT3; read-out: % Inhibition @ 100 nM
[28] = target: 468 kinases (Homo sapiens, UniProt Q9UBE8); settings: NLK; read-out: % Inhibition @ 100 nM
[29] = target: 468 kinases (Homo sapiens, UniProt Q9BVS4); settings: RIOK2; read-out: % Inhibition @ 100 nM
[30] = target: 468 kinases (Homo sapiens, UniProt Q8IWQ3); settings: BRSK2; read-out: % Inhibition @ 100 nM
[31] = target: 468 kinases (Homo sapiens, UniProt Q9Y2I7); settings: PIKFYVE; read-out: % Inhibition @ 100 nM
[32] = target: 468 kinases (Homo sapiens, UniProt P42336); settings: PIK3CA; read-out: % Inhibition @ 100 nM
[33] = target: 468 kinases (Homo sapiens, UniProt Q16513); settings: PKN2; read-out: % Inhibition @ 100 nM

**Q.** Which inhibition at 0.1 µM [1] does the source give for CCN(CC)CCNC(=O)c1c(C)[nH]c(/C=C2\C(=O)Nc3ccc(CCO)cc32)c1C [Compound No. 10, (Z)—N-(2-(Diethylamino)ethyl)-5-((5-(2-hydroxyethyl)-2-oxoindolin-3-ylidene)methyl)-2,4-dimethyl-1H-pyrrole-3-carboxamide] here?
**A.** 10%

**Q.** What about the inhibition at 0.1 µM [2] of the same compound?
**A.** 0%

**Q.** What about the inhibition at 0.1 µM [3] of the same compound?
**A.** 91.8%

**Q.** What about the inhibition at 0.1 µM [4] of the same compound?
**A.** 0%

**Q.** What about the inhibition at 0.1 µM [5] of the same compound?
**A.** 0%

**Q.** What about the inhibition at 0.1 µM [6] of the same compound?
**A.** 0%

**Q.** What about the inhibition at 0.1 µM [7] of the same compound?
**A.** 0%

**Q.** What about the inhibition at 0.1 µM [8] of the same compound?
**A.** 3%

**Q.** And the inhibition at 0.1 µM [9]?
**A.** 0%

**Q.** What about the inhibition at 0.1 µM [10] of the same compound?
**A.** 6%

**Q.** And the inhibition at 0.1 µM [11]?
**A.** 80%

**Q.** What about the inhibition at 0.1 µM [12] of the same compound?
**A.** 0%

**Q.** And the inhibition at 0.1 µM [13]?
**A.** 57%

**Q.** What about the inhibition at 0.1 µM [14] of the same compound?
**A.** 0%

**Q.** And the inhibition at 0.1 µM [15]?
**A.** 0%

**Q.** And the inhibition at 0.1 µM [16]?
**A.** 52%

**Q.** What about the inhibition at 0.1 µM [17] of the same compound?
**A.** 0%

**Q.** What about the inhibition at 0.1 µM [18] of the same compound?
**A.** 18%

**Q.** What about the inhibition at 0.1 µM [19] of the same compound?
**A.** 59%

**Q.** And the inhibition at 0.1 µM [20]?
**A.** 79%

**Q.** And the inhibition at 0.1 µM [21]?
**A.** 8%

**Q.** And the inhibition at 0.1 µM [22]?
**A.** 39%

**Q.** And the inhibition at 0.1 µM [23]?
**A.** 15%

**Q.** What about the inhibition at 0.1 µM [24] of the same compound?
**A.** 0%

**Q.** And the inhibition at 0.1 µM [25]?
**A.** 0%

**Q.** What about the inhibition at 0.1 µM ([26]; ABL1 (T3151)-nonphosphorylated) of the same compound?
**A.** 56%

**Q.** What about the inhibition at 0.1 µM ([26]; ABL1 (T3151)-phosphorylated) of the same compound?
**A.** 91.8%

**Q.** What about the inhibition at 0.1 µM [27] of the same compound?
**A.** 47%

**Q.** And the inhibition at 0.1 µM [28]?
**A.** 5%

**Q.** And the inhibition at 0.1 µM [29]?
**A.** 0%

**Q.** What about the inhibition at 0.1 µM [30] of the same compound?
**A.** 32%

**Q.** And the inhibition at 0.1 µM [31]?
**A.** 6%

**Q.** What about the inhibition at 0.1 µM [32] of the same compound?
**A.** 0%

**Q.** And the inhibition at 0.1 µM [33]?
**A.** 24%

**Q.** With CCN(CC)CCNC(=O)c1c(C)[nH]c(/C=C2\C(=O)Nc3ccc(CCC(N)=O)cc32)c1C [Compound No. 16, (Z)-5-((5-(3-Amino-3-oxopropyl)-2-oxoindolin-3-ylidene)methyl)-N-(2-(diethylamino)ethyl)-2,4-dimethyl-1H-pyrrole-3-carboxamide] as the compound, how does the inhibition at 0.1 µM [1] read?
**A.** 10%

**Q.** And the inhibition at 0.1 µM [2]?
**A.** 17%

**Q.** What about the inhibition at 0.1 µM [3] of the same compound?
**A.** 81%

**Q.** What about the inhibition at 0.1 µM [4] of the same compound?
**A.** 32%

**Q.** And the inhibition at 0.1 µM [5]?
**A.** 9%

**Q.** What about the inhibition at 0.1 µM [6] of the same compound?
**A.** 55%

**Q.** And the inhibition at 0.1 µM [7]?
**A.** 7%

**Q.** What about the inhibition at 0.1 µM [8] of the same compound?
**A.** 10%

**Q.** And the inhibition at 0.1 µM [9]?
**A.** 36%

**Q.** What about the inhibition at 0.1 µM [10] of the same compound?
**A.** 9%

**Q.** What about the inhibition at 0.1 µM [11] of the same compound?
**A.** 0%

**Q.** What about the inhibition at 0.1 µM [12] of the same compound?
**A.** 47%

**Q.** What about the inhibition at 0.1 µM [13] of the same compound?
**A.** 58%

**Q.** And the inhibition at 0.1 µM [14]?
**A.** 35%

**Q.** What about the inhibition at 0.1 µM [15] of the same compound?
**A.** 0%

**Q.** And the inhibition at 0.1 µM [16]?
**A.** 31%

**Q.** And the inhibition at 0.1 µM [17]?
**A.** 0%

**Q.** What about the inhibition at 0.1 µM [18] of the same compound?
**A.** 7%

**Q.** And the inhibition at 0.1 µM [19]?
**A.** 37%

**Q.** And the inhibition at 0.1 µM [20]?
**A.** 72%

**Q.** And the inhibition at 0.1 µM [21]?
**A.** 0%

**Q.** What about the inhibition at 0.1 µM [22] of the same compound?
**A.** 4%

**Q.** What about the inhibition at 0.1 µM [23] of the same compound?
**A.** 28%

**Q.** What about the inhibition at 0.1 µM [24] of the same compound?
**A.** 11%

**Q.** What about the inhibition at 0.1 µM [25] of the same compound?
**A.** 55%

**Q.** What about the inhibition at 0.1 µM ([26]; ABL1 (T3151)-nonphosphorylated) of the same compound?
**A.** 61%

**Q.** And the inhibition at 0.1 µM ([26]; ABL1 (T3151)-phosphorylated)?
**A.** 86%

**Q.** What about the inhibition at 0.1 µM [27] of the same compound?
**A.** 17%

**Q.** And the inhibition at 0.1 µM [28]?
**A.** 8%

**Q.** What about the inhibition at 0.1 µM [29] of the same compound?
**A.** 38%

**Q.** What about the inhibition at 0.1 µM [30] of the same compound?
**A.** 25%

**Q.** And the inhibition at 0.1 µM [31]?
**A.** 27%

**Q.** And the inhibition at 0.1 µM [32]?
**A.** 14%

**Q.** What about the inhibition at 0.1 µM [33] of the same compound?
**A.** 18%
